Data: PMC7873226, “Molecular mechanism and structural basis of small-molecule modulation of the gating of acid-sensing ion channel 1” (Communications Biology, 2021)

Tests used:
rat ASIC1a [1] = molecular target: T1, rat ASIC1a (Rattus norvegicus, UniProt P55926); assay: Whole-cell patch clamp: inhibition of acid-induced current in CHO cells stably expressing rat ASIC1a; format: cell-based; details: 30 µM
T1 construct: expressed in transfected cells
T1 sequence (P55926 1-526): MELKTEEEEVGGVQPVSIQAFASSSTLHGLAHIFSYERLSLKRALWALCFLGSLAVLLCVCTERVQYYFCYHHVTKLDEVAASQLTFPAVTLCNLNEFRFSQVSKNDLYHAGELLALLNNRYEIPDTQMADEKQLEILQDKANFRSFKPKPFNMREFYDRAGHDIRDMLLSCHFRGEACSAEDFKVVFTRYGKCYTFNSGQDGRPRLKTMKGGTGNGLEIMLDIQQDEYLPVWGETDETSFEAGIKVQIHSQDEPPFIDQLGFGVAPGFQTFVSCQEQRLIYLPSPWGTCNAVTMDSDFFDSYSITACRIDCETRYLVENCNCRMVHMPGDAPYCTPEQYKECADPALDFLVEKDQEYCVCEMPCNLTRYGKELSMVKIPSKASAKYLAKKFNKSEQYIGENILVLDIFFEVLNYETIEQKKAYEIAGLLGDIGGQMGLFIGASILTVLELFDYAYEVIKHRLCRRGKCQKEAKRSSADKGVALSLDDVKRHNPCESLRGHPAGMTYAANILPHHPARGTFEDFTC
Description: (§1) Chinese Hamster Ovary (CHO) cells stably expressing rat ASIC1a were cultured in Ham’s F12, supplemented with 10% FBS, 1% penicillin–streptomycin and 500 µg/mL G418 and incubated at 37 °C with 5% CO2. Transient transfections of rASIC1a and cASIC1 wild-type or mutant channels in CHO cells were performed with Lipofectamine 3000 (Thermo Fisher Scientific) according to the manufacturer’s recommendations. The green fluorescent protein (GFP) cDNA (at 1/10 the amount of channel cDNA) was co-transfected with channel cDNA to aid the identification of transfected cells under the microscope in patch clamp experiments. All cDNAs were sequence verified.
(§2) Cells were freshly dissociated with CellStripper (Corning) and dispersed in a chamber on the stage of an inverted microscope. Upon formation of the whole-cell conformation, the cell was lifted from the bottom of the chamber and placed at the tip of a tubing perfusing an extracellular solution containing (in mM): 149 NaCl, 2 CaCl2, 4 KCl, 1 MgCl2, 5 glucose, 10 HEPES, pH 7.4, 310 mOsm/L. Extracellular solutions at more basic or acidic pHs were made by titrating the above pH 7.4 solution with NaOH or HCl (5 mM MES was added to solutions at pH 6.0 and lower). Pipette electrodes were filled with an intracellular solution containing (in mM): 135 KCl, 4 MgATP, 0.3 Na2GTP, 10 EGTA, and 20 HEPES, pH 7.2, 290 mOsm/L.
(§3) All recordings were performed at room temperature using an Axopatch 200B amplifier and pClamp 11 software (Molecular Devices). Currents were measured by whole-cell patch clamp, digitized at 10 kHz and lowpass filtered at 2 kHz. Series resistance was 75% compensated. Responses were elicited by rapid perfusion of acidic solutions using the SF-77B Fast-Step Perfusion device (Warner Instruments) for 40 ms once every 30 s (unless indicated otherwise) and recorded till steady state was reached. The holding potential was 0 mV unless indicated otherwise.
(§4) Baseline values (i.e., current amplitudes at the conditioning pH) were subtracted to obtain responses evoked by the test pH. Responses were normalized for each cell before averaging (see figure legends for more detail on normalization for each type of experiment). Concentration–response data were fitted to a logistic function of the form: R = (A1–A2)/(1 + (C/C0)^h)+A2, where R is the normalized response, C is either pH or compound concentration, C0 is the pH/concentration at which half-maximal response occurs (pH50 or IC50), h is the Hill coefficient, and A1 and A2 are constants. Kinetic parameters were obtained by fitting the data with either a single or double exponential function. Fitted data are shown as solid, dashed, or dotted curves.

rat ASIC1a [2] = molecular target: T1, rat ASIC1a; assay: pH dependence of steady-state desensitization (whole-cell patch clamp); format: cell-based; details: 10 nM PcTx1
Description: as §1, §2, §3, §4

Compound	block of pH 6.0-induced current (rat ASIC1a [1]; 0 mV) [%]	block of pH 6.0-induced current (rat ASIC1a [1]; −80 mV) [%]	pH50 of steady-state desensitization (rat ASIC1a [2])
N=C(N)NC(=O)c1nc(Cl)c(N)nc1N [amiloride, reference compound]	62.3 ± 0.7	86.8 ± 1.2	–
PcTx1 [reference compound]	–	–	7.81 ± 0.02
